Assay results taken from patent US12129312B2, “Peptide compound, application thereof and composition containing same” (priority 2017, dated 2024).
Numbered stars: 1 amine (or outer) side, 2 acyl side, 3 side chain; on linkers, the order of the positions; unused ones are H or OH. Square brackets hold non-standard residues; d marks the D form. Peptide text beside a SMILES is read from it. * marks the point of attachment. X11 = O=C([C@@H](Cc1ccc(O)cc1)N(CCCc1ccccc1)[*:1])[*:2]; Diphenylacetyl = O=C(C(c1ccccc1)c1ccccc1)*; Benzoyl(3,5-(OH)2) = O=C(c1cc(O)cc(O)c1)*; Gly(Nα-CH2CH2CONH2) = NC(=O)CCNCC(=O)O; dNMeY = CN[C@H](Cc1ccc(O)cc1)C(=O)O; Butanoyl(4-Ph) = O=C(CCCc1ccccc1)*; Hydrocinnamoyl = O=C(CCc1ccccc1)*; Tic = O=C(O)[C@@H]1Cc2ccccc2CN1; NMeL = CN[C@@H](CC(C)C)C(=O)O; NMeS = CN[C@@H](CO)C(=O)O; Pip = O=C(O)[C@@H]1CCCCN1; Thz = O=C(O)[C@@H]1CSCN1; Nva = CCC[C@H](N)C(=O)O

The molecules below were run against T1, human Chemokine like receptor 1 (Homo sapiens, UniProt Q99788) (assay: Activation of Tango CMKLR1-bla U2OS cells (beta-lactamase FRET reporter)). Settings: not given.
T1 construct: host or cells: U2OS (Tango CMKLR1-bla U2OS)
T1 sequence (Q99788 1-373): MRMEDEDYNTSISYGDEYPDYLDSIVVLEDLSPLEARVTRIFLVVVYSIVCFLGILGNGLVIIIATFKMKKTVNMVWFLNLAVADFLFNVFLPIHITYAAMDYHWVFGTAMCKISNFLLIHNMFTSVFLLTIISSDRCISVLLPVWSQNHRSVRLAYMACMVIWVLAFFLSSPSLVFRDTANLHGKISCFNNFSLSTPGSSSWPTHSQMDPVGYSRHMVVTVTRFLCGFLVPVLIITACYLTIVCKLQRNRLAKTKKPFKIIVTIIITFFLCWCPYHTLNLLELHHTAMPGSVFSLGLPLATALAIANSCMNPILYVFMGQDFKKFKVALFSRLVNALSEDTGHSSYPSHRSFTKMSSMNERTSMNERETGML
Type: cell-based
Experimental: The polypeptide sequences described above are the polypeptide sequences disclosed in the patent JP2010-229093A of BANYU PHARMA CO LTD: (D-Tyr)-Phe-Leu-Pro-(D-Ser)-Gln-Phe-(D-Ala)-Tic-Ser was used as a positive control (SEQ ID NO: 102).
The activation of the compound on Tango™ CMKLR1-bla U2OS cells (Invitrogen Cat. nos. K1551) was tested.
The activation of each compound in the above experiments on Tango™ CMKLR1-bla U2OS cells was determined as follows:
Day 1: Cell Seeding on Plate
2. The medium was removed, and the cells were washed with DPBS twice, followed by addition of 3 mL of 0.05% trypsin, and placed in a 37° C., 5% CO2 incubator (Thermo Fisher, Waltham, Massachusetts, USA) for 3-5 minutes. After the cells were rounded, 3-5 mL of medium (medium formula: DMEM 90%, Dialyzed FBS 10%, NEAA 0.1 mM, HEPES (pH 7.3) 25 mM, Penicillin 100 U/mL, Streptomycin 100 μg/mL) was added to terminate digestion.
2. The digested cells were transferred to a 15 mL centrifuge tube (430790, Corning), centrifuged at 1000 rpm for 5 minutes (5810R, Eppendorf, Hamburg, Germany), and the supernatant was discarded.
3. 7 mL of medium (DMEM+10% FBS) was added, blowed into a single cell suspension, counted by a cell counter, and adjusted the cell suspension to a desired cell density of 250,000/mL with the medium.
4. The cell suspension was seeded into a 384-well cell plate (Corning 3712) in 40 μL/well to make the number of cells 10000 cells/well, and 32 μL of medium was added to the blank control.
5. The incubation was performed overnight at 37° C. under 5% CO2.
Day 2: Dosing and Testing
1. Preparation of 200× Compound Plate
1.1 The test compound was formulated into a 10 mM working solution in DMSO.
1.2 45 μL of 10 mM test compound was added to the 2nd column of rows A to P in the Echo-384 well plate. The compound was subjected to a 3-fold dilution with Precision (30 μL of DMSO was added to the 3rd to 11th columns; 15 μL of the drug solution was pipetted from the 2nd column to the 3rd column, blown and evenly mixed; then 15 μL of the drug solution was pipetted from the 3rd column to the 4th column, blown and evenly mixed; the drugs was subjected to a 3-fold dilution to obtain 10 concentrations in total). The 1st and 12th columns of the Echo-384 well plate were supplemented with 30 μL of DMSO.
2. Preparation of Intermediate Plate
500 nL, i.e., 0.5 μL of the diluted compound (or DMSO) in the 200× compound plate was transferred into the corresponding position of V-bottom 384-well plate with Echo. 20 μL of medium was added to each well, centrifuged, shaken and evenly mixed. The concentration of the drugs in each well of the 2nd to 11th column of intermediate plate (i.e., 5× compound plate) were shown in following Table 4.
3.1 The cell plate was taken out from the incubator and observed under a microscope. The diluted compound or DMSO in the intermediate plate was added to the cell plate in 10 μL/well in the corresponding cell plate, and 40 μL of medium was pre-filled in each well.
3.2 The cells were incubated at 37° C. under 5% CO2 for 4 hours.
4.1 1 mM CCF4-AM, solution B, Solution C, and Solution D were used to prepare an appropriate amount of 6× detection solution. The LiveBLAzer™-FRET B/G Loading kit (K1095, Thermo Fisher, Waltham, Massachusetts, USA) kit containing CCF-4AM and solutionB, solutionC, and solutionD was also purchased from invitrogen (K1157, Thermo Fisher, Waltham, Massachusetts, USA).
4.2 The cells were observed under a microscope and the cell plate was equilibrated to room temperature.
4.3 6 μL of CCF-4AM dissolved solution A, 60 μL of solution B, 904 μL of solution C and 30 μL of solution D were pipetted in an EP tube, blown, and evenly mixed to obtain a 6× detection solution. The prepared 6× detection solution was pipetted to a 384-well plate in 10 μL/well.

Structure (SMILES)	EC50 [nM]
CCC[C@H](NC(=O)[C@H](Cc1ccccc1)NC(=O)[C@H](N)Cc1ccc(O)cc1)C(=O)N1CCC[C@H]1C(=O)N[C@H](CO)C(=O)N[C@@H](CCC(N)=O)C(=O)N[C@@H](Cc1ccccc1)C(=O)N[C@H](C)C(=O)N1Cc2ccccc2C[C@H]1C(=O)N[C@@H](CO)C(=O)O [YW-196, (D-Tyr)-Phe-Nva-Pro-(D-Ser)-Gln-Phe-(D-Ala)-Tic-Ser] (H-[dY]F[Nva]P[dS]QF[dA][Tic]S-OH)	39
CC(C)C[C@H](NC(=O)[C@H](Cc1ccccc1)NC(=O)[C@@H](Cc1ccc(O)cc1)NC(=O)C(c1ccccc1)c1ccccc1)C(=O)N1CCC[C@H]1C(=O)N[C@H](CO)C(=O)N[C@@H](CCC(N)=O)C(=O)N[C@@H](Cc1ccccc1)C(=O)N[C@H](C)C(=O)N1Cc2ccccc2C[C@H]1C(=O)N[C@@H](CO)C(=O)O [YW-78, diphenylacetyl-(D-Tyr)-Phe-Leu-Pro-(D-Ser)-Gln-Phe-(D-Ala)-Tic-Ser-OH] (Diphenylacetyl-[dY]FLP[dS]QF[dA][Tic]S-OH)	26

Same assay, conditions: determination by the method of Effect Embodiment 1; read-out: EC50

Structure (SMILES)	EC50 [nM]
CC(C)C[C@H](NC(=O)[C@H](Cc1ccccc1)NC(=O)[C@@H](Cc1ccc(O)cc1)NCCCc1ccccc1)C(=O)N1CCC[C@H]1C(=O)N[C@H](CO)C(=O)N[C@@H](CCC(N)=O)C(=O)N[C@@H](Cc1ccccc1)C(=O)N[C@H](C)C(=O)N1Cc2ccccc2C[C@H]1C(=O)N[C@@H](CO)C(=O)O [YW-74, 3-Phenylpropyl-(D-Tyr)-Phe-Leu-Pro-(D-Ser)-Gln-Phe-(D-Ala)-Tic-Ser-OH] (H-[X11]FLP[dS]QF[dA][Tic]S-OH)	6.2
CC(C)C[C@H](NC(=O)[C@H](Cc1ccccc1)NC(=O)[C@H](N)Cc1ccc(O)cc1)C(=O)N1CCC[C@H]1C(=O)N[C@H](CO)C(=O)N[C@@H](CCC(N)=O)C(=O)N[C@@H](Cc1ccccc1)C(=O)N[C@H](C)C(=O)N1Cc2ccccc2C[C@H]1C(=O)N[C@@H](CO)C(N)=O [YW-189, (D-Tyr)-Phe-Leu-Pro-(D-Ser)-Gln-Phe-(D-Ala)-Tic-Ser-NH2] (H-[dY]FLP[dS]QF[dA][Tic]S-NH2; N-terminus assumed)	6.8
CC(C)C[C@H](NC(=O)[C@H](Cc1ccccc1)NC(=O)[C@H](N)Cc1ccc(O)cc1)C(=O)N1CCC[C@H]1C(=O)N[C@H](CO)C(=O)N[C@@H](CCC(N)=O)C(=O)N[C@@H](Cc1ccccc1)C(=O)N[C@H](C)C(=O)N1CCCC[C@H]1C(=O)N[C@@H](CO)C(=O)O [YW-90, (D-Tyr)-Phe-Leu-Pro-(D-Ser)-Gln-Phe-(D-Ala)-HoPro-Ser-OH] (H-[dY]FLP[dS]QF[dA][Pip]S-OH)	> 50000
CC(C)C[C@H](NC(=O)[C@H](Cc1ccccc1)NC(=O)[C@@H](Cc1ccc(O)cc1)NC(=O)c1cc(O)cc(O)c1)C(=O)N1CCC[C@H]1C(=O)N[C@H](CO)C(=O)N[C@@H](CCC(N)=O)C(=O)N[C@@H](Cc1ccccc1)C(=O)N[C@H](C)C(=O)N1Cc2ccccc2C[C@H]1C(=O)N[C@@H](CO)C(=O)O [YW-79, 3,5-dihydroxybenzoyl-(D-Tyr)-Phe-Leu-Pro-(D-Ser)-Gln-Phe-(D-Ala)-Tic-Ser-OH] ({Benzoyl(3,5-(OH)2)}-[dY]FLP[dS]QF[dA][Tic]S-OH)	4.7
CC(C)C[C@H](NC(=O)[C@H](Cc1ccccc1)NC(=O)[C@H](N)Cc1ccc(O)cc1)C(=O)N1CSC[C@H]1C(=O)N[C@H](CO)C(=O)N[C@@H](CCC(N)=O)C(=O)N[C@@H](Cc1ccccc1)C(=O)N[C@H](C)C(=O)N1Cc2ccccc2C[C@H]1C(=O)N[C@@H](CO)C(=O)O [YW-114, (D-Tyr)-Phe-Leu-Thz-(D-Ser)-Gln-Phe-(D-Ala)-Tic-Ser-OH] (H-[dY]FL[Thz][dS]QF[dA][Tic]S-OH)	5
CN[C@H](Cc1ccc(O)cc1)C(=O)N[C@@H](Cc1ccccc1)C(=O)N(C)[C@@H](CC(C)C)C(=O)N1CSC[C@H]1C(=O)N[C@H](CO)C(=O)N[C@@H](CCC(N)=O)C(=O)N[C@@H](Cc1ccccc1)C(=O)N[C@H](C)C(=O)N1Cc2ccccc2C[C@H]1C(=O)N(C)[C@@H](CO)C(=O)O [YW-124, (NMe-D-Tyr)-Phe-(NMe-Leu)-Thz-(D-Ser)-Gln-Phe-(D-Ala)-Tic-(NMe-Ser)-OH] (H-[dNMeY]F[NMeL][Thz][dS]QF[dA][Tic][NMeS]-OH)	1.3
CC(C)C[C@H](NC(=O)[C@H](Cc1ccccc1)NC(=O)[C@@H](Cc1ccc(O)cc1)NC(=O)CCc1ccccc1)C(=O)N1CCC[C@H]1C(=O)N[C@H](CO)C(=O)N[C@@H](CCC(N)=O)C(=O)N[C@@H](Cc1ccccc1)C(=O)N[C@H](C)C(=O)N1Cc2ccccc2C[C@H]1C(=O)N[C@@H](CO)C(=O)O [YW-71, 3-phenylpropanoyl-(D-Tyr)-Phe-Leu-Pro-(D-Ser)-Gln-Phe-(D-Ala)-Tic-Ser-OH] (Hydrocinnamoyl-[dY]FLP[dS]QF[dA][Tic]S-OH)	31
CC(C)C[C@H](NC(=O)[C@H](Cc1ccccc1)NC(=O)[C@H](N)Cc1ccc(O)cc1)C(=O)N1CCC[C@H]1C(=O)N[C@H](CO)C(=O)N(CCC(N)=O)CC(=O)N[C@@H](Cc1ccccc1)C(=O)N[C@H](C)C(=O)N1Cc2ccccc2C[C@H]1C(=O)N[C@@H](CO)C(=O)O [YW-108, (D-Tyr)-Phe-Leu-Pro-(D-Ser)-NGln-Phe-(D-Ala)-Tic-Ser-OH] (H-[dY]FLP[dS][Gly(Nα-CH2CH2CONH2)]F[dA][Tic]S-OH)	> 50000
CC(C)C[C@@H](C(=O)N1CCC[C@H]1C(=O)N[C@H](CO)C(=O)N[C@@H](CCC(N)=O)C(=O)N[C@@H](Cc1ccccc1)C(=O)N[C@H](C)C(=O)N1Cc2ccccc2C[C@H]1C(=O)N[C@@H](CO)C(N)=O)N(C)C(=O)[C@H](Cc1ccccc1)NC(=O)[C@@H](Cc1ccc(O)cc1)NC(=O)CCc1ccccc1 [YW-161, 3-phenylpropanoyl-(D-Tyr)-Phe-(NMe-Leu)-Pro-(D-Ser)-Gln-Phe-(D-Ala)-Tic-Ser-NH2] (Hydrocinnamoyl-[dY]F[NMeL]P[dS]QF[dA][Tic]S-NH2)	3
CC(C)C[C@H](NC(=O)[C@H](Cc1ccccc1)NC(=O)[C@@H](Cc1ccc(O)cc1)NC(=O)CCCc1ccccc1)C(=O)N1CCC[C@H]1C(=O)N[C@H](CO)C(=O)N[C@@H](CCC(N)=O)C(=O)N[C@@H](Cc1ccccc1)C(=O)N[C@H](C)C(=O)N1Cc2ccccc2C[C@H]1C(=O)N[C@@H](CO)C(=O)O [YW-75, 4-Phenylbutanoyl-(D-Tyr)-Phe-Leu-Pro-(D-Ser)-Gln-Phe-(D-Ala)-Tic-Ser-OH] ({Butanoyl(4-Ph)}-[dY]FLP[dS]QF[dA][Tic]S-OH)	50
CN[C@H](Cc1ccc(O)cc1)C(=O)N[C@@H](Cc1ccccc1)C(=O)N[C@@H](CC(C)C)C(=O)N1CCC[C@H]1C(=O)N[C@H](CO)C(=O)N[C@@H](CCC(N)=O)C(=O)N[C@@H](Cc1ccccc1)C(=O)N[C@H](C)C(=O)N1Cc2ccccc2C[C@H]1C(=O)N[C@@H](CO)C(=O)O [YW-103, (D-NMe-Tyr)-Phe-Leu-Pro-(D-Ser)-Gln-Phe-(D-Ala)-Tic-Ser-OH] (H-[dNMeY]FLP[dS]QF[dA][Tic]S-OH; N-terminus assumed)	9.4
